Results from US20240277772A1, “COMBINED ADMINISTRATION COMPOSITION FOR PREVENTING OR TREATING ATOPIC DERMATITIS, COMPRISING FUNCTION-ENHANCED STEM CELLS AND REGULATORY T CELLS” (SCM LIFESCIENCE CO., LTD., priority 2021, published 2024).

Test system: mesenchymal stem cells
Assay: qRT-PCR of IDO and TSG6 expression in mesenchymal stem cells treated with priming candidates
Type: cell-based
Conditions: for expression of IDO / expression of TSG6: Table 1 compositions, 24 hours, FIG. 4, compared to untreated control or to single substances; for lowest effective concentration capable of inducing significantly increased expression of both TSG6 and IDO: stem cells treated 24 hours, TNF-α and IFN-γ at 5, 10, 20 ng/ml, IFN-α at 10, 20, 40 ng/ml, FIGS. 1-3
Description: In a 37° C. and 5% CO2 incubator, mesenchymal stem cells in a storage state (LN2 tank storage) were thawed and cultured, and at this time, the cells were cultured in a medium (DMEM, alpha-MEM) containing 10% FBS or 4% hPL until proliferated to a cell confluence of about 80%. The cultured mesenchymal stem cells were seeded in a 100 mm dish and treated with candidate substances for enhancing the functions of the mesenchymal stem cells for 24 hours, and then the concentrations of primary candidate substances for enhancing the functions were set.
TNF-α, IFN-γ, and IFN-α were selected as the primary candidate substances, and in order to confirm the lowest effective concentration capable of increasing the expression of TNFα-stimulated gene-6 (TSG6) and indoleamine 2,3-dioxygenase (IDO) to confirm the enhanced functions, the stem cells were treated with 5, 10, and 20 ng/ml of TNF-α, 5, 10, and 20 ng/ml of IFN-γ, and 10, 20, and 40 ng/ml of IFN-α, respectively, and changes in expression of TSG6 and IDO were confirmed.
The IDO was known as an immunomodulatory factor that inhibited the proliferation of immune cells such as T cells by converting tryptophan, which was essential for T cell proliferation, into kynurenine, and the TSG6 was known as an anti-inflammatory regulator secreted from mesenchymal stem cells. After culturing the stem cells, total RNA was isolated using TRIzol (Invitrogen), and cDNA was synthesized from total RNA using PrimeScript™RT reagent Kit with gDNA Eraser (TaKaRa), and qRT-PCR was performed. The results of TSG6 and IDO according to the concentration of each candidate substance were illustrated in FIGS. 1, 2 and 3.
Through Example 1, in order to search for more function-enhanced compositions based on the candidate substances and lowest effective concentrations identified to induce the enhanced functions of stem cells, selected candidate substances and combined concentrations thereof were set as shown in Table 1. Mesenchymal stem cells were treated with the candidate combinations described in Table 1 below for 24 hours, and the stem cells were cultured as in Example 1, and then total RNA was isolated using TRIzol (Invitrogen). Thereafter, qRT-PCR was performed by synthesizing cDNA from total RNA using the PrimeScript™RT reagent Kit with gDNA Eraser (TaKaRa).
Vitamins were known to improve the proliferative ability of stem cells and maintain the stemness of stem cells when added during a stem cell culture process. Accordingly, various vitamins were treated in the stem cell culture process, and experiments were performed to confirm whether or not vitamins could achieve anti-inflammatory and immune function enhancing effects of stem cells. Specifically, the stem cells were treated with various types of vitamins shown in Table 2 below according to the method described in Example 1, and the results of confirming changes in expression of IDO and TSG6 according to treatment with each candidate substance were illustrated in FIG. 5.

Substance | expression of IDO | expression of TSG6 | lowest effective concentration capable of inducing significantly increased expression of both TSG6 and IDO
IFN-α | increased expression | increased expression | 20 ng/mL
IFN-γ [priming factor for stem cells, 10 ng/ml] | increased expression | increased expression | 10 ng/mL
TNF-α | increased expression | increased expression | 10 ng/mL
